{
  "source": "patent US20230226016A1",
  "about": "“AGENTS AND METHODS FOR TREATING TAUOPATHIES” (The Regents of University of California, priority 2020, published 2023)",
  "key": {"crude AD brain extract": {"test_system": "crude AD brain extract", "assay": "Seeding by crude AD brain extract in tau biosensor cells, Ferumoxytol conjugates, no pre-incubation", "assay_type": "cell-based, human", "conditions": "mixed with extract and immediately transfected", "source_text": "(A) Seeding by crude AD brain extract measured in tau biosensor cells that were co-transfected with nanoparticles coupled to EGCG by linkers of varying length. (B-C) Negative-stain electron micrographs of EGCG-conjugated and non-conjugated nanoparticles. Nanoparticle coupled with EGCG analog 5c (B) cluster with fibrils of AD-tau. No clustering is seen between non-conjugated nanoparticles and AD-tau fibrils (C).\nWe tested the activity of Ferumoxytol conjugated EGCG analogs using the biosensor cell assay described above, except we omitted the pre-incubation step such that our assay more closely resembled the scenario of therapeutic intervention, for which there is no pre-incubation period. Nanoparticle conjugated EGCG derivative was mixed with crude AD brain extract and immediately transfected into tau biosensor cells."}, "AD crude brain extracts": {"test_system": "AD crude brain extracts", "assay": "Seeding by crude AD brain extract pre-treated with inhibitor, tau biosensor cells (Example 5)", "assay_type": "cell-based, human", "conditions": "10 μM final on cells, pre-incubated 16-18 hours", "source_text": "(A) Seeding by crude AD brain extract pre-treated with EGCG or experimental linker-conjugated analogs, as indicated. Inhibitor activity is read-out by measuring seeding in tau biosensor cells. Seeding is taken as a proxy for the fibril load that is contained within the AD crude brain extracts. Reduction in fibril load following treatment with experimental linker-conjugated analogs of EGCG reduces prion-like seeding by AD-tau nearly as effectively as EGCG itself. (B) Representative fluorescence images of tau biosensor cells experiments from A. Intracellular aggregates seeded by crude AD brain extracts are identified as puncta (green dots in the “No inhibitor” treated sample, left fluorescence micrograph). Inhibitor treatment reduces the number of puncta (right fluorescence micrograph). The number of puncta as a function of inhibitor pre-treatment is plotted in A.\nWe next tested if the D-ring site of triazole-linked amino PEGylation would interfere with tau fibril disaggregation observed for EGCG. […] Crude extract of autopsied brain tissue of a donor with AD (prepared as described in the SI) were pre-incubated with inhibitors (10 μM final concentration on cells) for 16-18 hours and resulting homogenates were added to the cells for imaging 3 days later."}, "[1]": {"molecular_target": "T1, recombinant tau-K18+ fibrils (Homo sapiens, UniProt P10636)", "T1 sequence (P10636 561-697)": "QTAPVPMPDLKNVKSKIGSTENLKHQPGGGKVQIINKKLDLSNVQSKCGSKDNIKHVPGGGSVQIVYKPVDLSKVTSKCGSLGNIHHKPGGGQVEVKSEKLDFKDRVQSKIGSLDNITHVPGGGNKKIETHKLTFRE", "assay": "Isothermal titration calorimetry (ITC)", "conditions": "750 μM EGCG into 75 μM fibrils, 1 site binding model", "description": "(§1) (a) Isothermal titration calorimetry (ITC) of 750 μM EGCG into 75 μM recombinant tau-K18+ fibrils. The binding isotherm was fit using a standard 1 site binding model. (b) ThT assay showing the effect EGCG or negative control, doxycycline, have on the aggregation of 20 μM tau-K18+ monomer^33, a construct that contains all of the residues that are observed in the AD tau fibril core^7,9. Note the sudden drop in ThT signal at 10 hrs (marked by a red arrow) for the sample containing EGCG. (c) Negative stain electron micrographs of 75 μM recombinant tau-K18+ fibrils prior to incubation with EGCG (top) or following 1 or 3 hour incubation with a two-fold molar excess of EGCG at room temperature, as indicated. (d) As in c except EGCG micrographs of tau are of fibrils purified from AD brain tissue and EGCG treatments were carried out at a concentration of 100 μM for a 3 hour or overnight duration at 37° C., as indicated.\nHuman Tau tau-K18+(residues Q244-E380 of 4R tau) was expressed in a pNG2 vector in BL21-Gold E. coli cells grown in LB to an OD600=0.8. Cells were induced with 0.5 mM IPTG for 3 hours at 37° C. and lysed by sonication in 20 mM MES buffer (pH 6.8) with 1 mM EDTA, 1 mM MgCl2, 1 mM DTT and HALT protease inhibitor before addition of NaCl 500 mM final concentration. […]"}, "tau-K18+ monomer": {"molecular_target": "T2, tau-K18+ monomer (Homo sapiens, UniProt P10636)", "T2 construct": "Human Tau tau-K18+(residues Q244-E380 of 4R tau); made in house; host or cells: E. coli BL21-Gold, pNG2 vector", "T2 sequence (P10636 561-697)": "as above", "assay": "ThT aggregation kinetics assay", "assay_type": "biochemical", "conditions": "20 μM tau-K18+ monomer, equimolar inhibitor", "description": "as §1\nConcentrated tau-K18+ was diluted into PBS buffer (pH 7.4) to a final concentration of 20 μM with an equimolar ratio of indicated small molecule inhibitor. […] ThT fluorescence was measured with excitation and emission wavelengths of 440 and 480 nm, and averaged curves were generated from triplicate measurements as indicated in the figure legend. […]"}, "[2]": {"molecular_target": "T1, recombinant tau-K18+ fibrils", "assay": "Negative stain electron microscopy of recombinant tau fibrils", "conditions": "75 μM fibrils, two-fold molar excess of EGCG, 3 hr, room temperature", "description": "as §1"}, "[3]": {"test_system": "tau fibrils purified from AD brain tissue", "assay": "Negative stain electron microscopy of AD brain-derived tau fibrils", "parameters": "species or system human", "conditions": "100 μM EGCG, overnight, 37° C.", "description": "as §1\nTo prepare specimens of AD brain-derived tau fibrils for structural studies, we examined negatively stained EM grids of purified tau fibrils from the frontal cortex of AD donor 1 (FIG. 1a) at various times following incubation with EGCG. AD brain-derived tau fibrils were more robust than recombinant tau fibrils and disaggregation was accelerated by incubation at 37° C. […]"}, "PHFE2 fibrils": {"molecular_target": "PHFE2 fibrils (Homo sapiens, UniProt P10636)", "assay": "ThT measurement of PHFE2 peptide fibrils", "conditions": "5 mM EGCG, 30 mM fibrils, 30 min incubation", "procedure": "(c) ThT signal of fibrils formed from PHFE2 peptide without EGCG, or following 30 min incubation. Error bars show the standard deviation of triplicate measurements.\nFibrils were grown at 37° C. in an orbital shaker with shaking at 350 rpm for 3-4 weeks. Solutions were removed from shaking and heat upon appearance of fibrils, confirmed by negative stain EM. For ThT experiments, fibrils were diluted to 30 mM in PBS, and ThT was added to a final concentration of 40 μM. EGCG was added from a concentrated stock to a final concentration of 5 mM where indicated. ThT measurements were carried out as described above, except readings were taken from a 384-well plate with a volume of 35 μl."}, "[4]": {"test_system": "crude brain extracts from donors with AD", "assay": "Inhibition of seeding by crude AD brain extracts in tau biosensor cells", "conditions": "10 μM", "procedure": "(§2) (a) Seeding following overnight preincubation of AD brain purified tau fibrils with a final inhibitor concentration of 10 μM. Seeding was measured 3 days after transfecting biosensor cells with fibril-inhibitor complexes. […] Error bars show the standard deviation of triplicate measurements. […] Seeding (expressed as 10 power) was measured as in a, and IC50 values were calculated from dose-response plots. […] Each column represents the inhibitor response of a different donor. Inhibitor concentrations were 10 μM. Responses to inhibitors were normalized to seeding in the absence of inhibitor, abbreviated “No Inh”, and normalized seeding values for each inhibitor were plotted from maximal inhibitor response (low fractional seeding, left) to minimal response (seeding approaching a value of 1.0, right) for each of the indicated inhibitors.\n(§3) After twenty minutes, 10 μl of fibrils were added to 90 μl of tau biosensor cells. The number of seeded aggregates was determined by imaging the entire well of a 96-well plate in triplicate using a Celigo Image Cytometer (Nexcelom) in the YFP channel. Aggregates were counted using ImageJ^45 by subtracting the background fluorescence from unseeded cells and then counting the number of peaks with fluorescence above background using the built-in Particle Analyzer. […]"}, "[5]": {"test_system": "crude brain extracts from donors with PSP", "assay": "Inhibition of seeding by crude PSP brain extracts in tau biosensor cells", "conditions": "10 μM, N=7 donors", "procedure": "as §2, §3"}, "[6]": {"test_system": "tau fibrils purified from AD brain", "assay": "Inhibition of seeding in tau-K18 biosensor cells, AD brain purified tau fibrils as seeds", "conditions": "10 μM inhibitor, overnight preincubation, seeding measured 3 days after transfection", "procedure": "as §2, §3"}, "[7]": {"molecular_target": "fibrils of recombinant tau40 (Homo sapiens, UniProt P10636)", "sequence (P10636 1-441 isoform P10636-8)": "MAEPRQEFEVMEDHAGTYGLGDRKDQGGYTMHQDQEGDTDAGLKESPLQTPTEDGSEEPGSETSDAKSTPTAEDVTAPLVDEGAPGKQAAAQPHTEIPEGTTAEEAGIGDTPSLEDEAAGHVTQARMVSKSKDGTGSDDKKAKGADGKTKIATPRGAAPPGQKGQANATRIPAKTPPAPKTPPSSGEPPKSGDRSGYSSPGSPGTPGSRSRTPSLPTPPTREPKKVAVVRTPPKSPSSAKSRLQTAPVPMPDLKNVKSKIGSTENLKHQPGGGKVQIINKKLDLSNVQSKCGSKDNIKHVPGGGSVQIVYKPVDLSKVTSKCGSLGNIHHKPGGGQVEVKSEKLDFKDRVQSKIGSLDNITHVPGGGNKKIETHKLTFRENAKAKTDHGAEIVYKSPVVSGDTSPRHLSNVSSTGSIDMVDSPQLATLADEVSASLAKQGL", "assay": "EGCG dose dependence on seeding in tau biosensor cells, fibrils of recombinant tau40 as seeds", "procedure": "Error bars show the standard deviation of triplicate measurements. […] (e) EGCG dose dependence on seeding by fibrils of recombinant tau40. Seeding (expressed as 10 power) was measured as in a, and IC50 values were calculated from dose-response plots.\nAfter twenty minutes, 10 μl of fibrils were added to 90 μl of tau biosensor cells. The number of seeded aggregates was determined by imaging the entire well of a 96-well plate in triplicate using a Celigo Image Cytometer (Nexcelom) in the YFP channel. Aggregates were counted using ImageJ^45 by subtracting the background fluorescence from unseeded cells and then counting the number of peaks with fluorescence above background using the built-in Particle Analyzer. The number of aggregates was normalized to the confluence of each well, and dose-response plots were generated by calculating the average and standard deviations from triplicate measurements. For high quality images, cells were photographed on a ZEISS Axio Observer D1 fluorescence microscope using the YFP fluorescence channel."}},
  "note": "pIC50, pKd: −log10 of the molar value.",
  "data": [
    {"smiles": "NCCOCCn1cc(COc2c(O)cc(C(=O)O[C@@H]3Cc4c(O)cc(O)cc4O[C@@H]3c3cc(O)c(O)c(O)c3)cc2O)nn1", "note": "[Compound 5a, (2R,3R)-5,7-dihydroxy-2-(3,4,5-trihydroxyphenyl)chroman-3-yl 4-((1-(2-(2-aminoethoxy)ethyl)-H-1,2,3-triazol-4-yl)methoxy)-3,5-dihydroxybenzoate]", "values": [
      {"measurement": "inhibition of seeding by crude AD brain extract, Ferumoxytol conjugated analogs", "setting": "crude AD brain extract", "value": "< 50", "unit": "%"}
    ]},
    {"smiles": "NCCOCCOCCOCCn1cc(COc2c(O)cc(C(=O)O[C@@H]3Cc4c(O)cc(O)cc4O[C@@H]3c3cc(O)c(O)c(O)c3)cc2O)nn1", "note": "[Compound 5c, (2R,3R)-5,7-dihydroxy-2-(3,4,5-trihydroxyphenyl)chroman-3-yl 4-((1-(2-(2-(2-(2-aminoethoxy)ethoxy)ethoxy)ethyl)-H-1,2,3-triazol-4-yl)methoxy)-3,5-dihydroxybenzoate]", "values": [
      {"measurement": "inhibition of seeding by AD brain extracts compared with EGCG", "setting": "AD crude brain extracts", "value": "potency nearly on par with EGCG itself"}
    ]},
    {"smiles": "O=C(O[C@@H]1Cc2c(O)cc(O)cc2O[C@@H]1c1ccc(O)c(O)c1)c1cc(O)c(O)c(O)c1", "note": "[ECG]", "values": [
      {"measurement": "inhibition of seeding by AD brain extracts compared with EGCG", "setting": "AD crude brain extracts", "value": "inhibit seeding as well as the linker-conjugated analogs"}
    ]},
    {"smiles": "O=C(O[C@@H]1Cc2c(O)cc(O)cc2O[C@@H]1c1cc(O)c(O)c(O)c1)c1cc(O)c(O)c(O)c1", "note": "[EGCG, (−)-epigallocatechin gallate]", "values": [
      {"measurement": "stoichiometry N (ITC)", "setting": "[1]", "value": 0.86},
      {"measurement": "pKd", "setting": "[1]; read-out: affinity (ITC)", "value": 5.80},
      {"measurement": "ThT signal of fibrils formed in the presence of inhibitor", "setting": "tau-K18+ monomer", "value": "abruptly fell after reaching a plateau at 10 hr"},
      {"measurement": "lag time of tau aggregation (ThT)", "setting": "tau-K18+ monomer", "value": "no shift in the lag time"},
      {"measurement": "disaggregation of recombinant tau fibrils (EM)", "setting": "[2]", "value": "virtually vanish"},
      {"measurement": "disaggregation of AD brain-derived tau fibrils (EM)", "setting": "[3]", "value": "most of the AD brain-derived tau fibrils are lost"},
      {"measurement": "ThT signal of PHFE2 fibrils after addition of inhibitor", "setting": "PHFE2 fibrils", "value": "eliminated nearly any measurable ThT signal"},
      {"measurement": "fractional seeding by AD brain samples", "setting": "[4]; 15 AD crude brain extracts, normalized to no inhibitor", "value": "zero"},
      {"measurement": "inhibition of seeding by crude AD brain extracts", "setting": "[4]; N=15 donors, all patient samples", "value": "at least 50%"},
      {"measurement": "blocking of seeding by crude PSP brain extracts", "setting": "[5]", "value": "near perfect efficacy"},
      {"measurement": "inhibition of seeding by crude PSP brain extracts", "setting": "[5]; all patient samples", "value": "at least 50%"},
      {"measurement": "inhibition of seeding by tau fibrils purified from AD brain", "setting": "[6]", "value": "most effective inhibitors of seeding"},
      {"measurement": "pIC50", "setting": "[7]", "value": 6.40}
    ]}
  ]
}
